A short description of data set [1]: The drug is tested on Z-030 corresponding to mouse gut metagenome with ENA study accession number: PRJEB37062 and ENA sample accession number: ERS12561829 for biotransformation under anaerobic condition. The drug concentrations were measured over 9 timepoints collected between 0 and 24 hours of incubation by liquid-chromatography-coupled mass spectrometry (LC–MS). Conditions: 2 µM.

Data set [2] is described as follows: The drug is tested on Z-001 corresponding to mouse gut metagenome with ENA study accession number: PRJEB37062 and ENA sample accession number: ERS12561801 for biotransformation under anaerobic condition. The drug concentrations were measured over 9 timepoints collected between 0 and 24 hours of incubation by liquid-chromatography-coupled mass spectrometry (LC–MS). The note with it: 2 µM.

Data set [3] is described as follows: The drug is tested on Z-022 corresponding to mouse gut metagenome with ENA study accession number: PRJEB37062 and ENA sample accession number: ERS12561821 for biotransformation under anaerobic condition. The drug concentrations were measured over 9 timepoints collected between 0 and 24 hours of incubation by liquid-chromatography-coupled mass spectrometry (LC–MS). Conditions: 2 µM.

Data set [4] can be described thus: The drug is tested on Z-027 corresponding to metagenome with ENA study accession number: PRJEB37062 and ENA sample accession number: ERS12561826 for biotransformation under anaerobic condition. The drug concentrations were measured over 9 timepoints collected between 0 and 24 hours of incubation by liquid-chromatography-coupled mass spectrometry (LC–MS). The note with it: 2 µM.

For data set [5] the following is noted: human gut metagenome, 24 h, 2 µM.
For data set [6] the following is noted: human gut metagenome, 24 h, 2 µM. This is another data set of the same source.
A short description of data set [7]: The drug is tested on Z-020 corresponding to rabbit gut metagenome with ENA study accession number: PRJEB37062 and ENA sample accession number: ERS12561819 for biotransformation under anaerobic condition. The drug concentrations were measured over 9 timepoints collected between 0 and 24 hours of incubation by liquid-chromatography-coupled mass spectrometry (LC–MS). The note with it: 2 µM.

The conditions of data set [8]: human gut metagenome, 24 h, 2 µM. The source holds these as a separate data set.
The conditions of data set [9]: human gut metagenome, 24 h, 2 µM. The source holds these as a separate data set.
For data set [10] the following is noted: human gut metagenome, 24 h, 2 µM. This is another data set of the same source.
Data set [11] in a line: The drug is tested on Z-012 corresponding to metagenome with ENA study accession number: PRJEB37062 and ENA sample accession number: ERS12561812 for biotransformation under anaerobic condition. The drug concentrations were measured over 9 timepoints collected between 0 and 24 hours of incubation by liquid-chromatography-coupled mass spectrometry (LC–MS). The note with it: 2 µM.

Data set [12] is described as follows: The drug is tested on Z-008 corresponding to metagenome with ENA study accession number: PRJEB37062 and ENA sample accession number: ERS12561808 for biotransformation under anaerobic condition. The drug concentrations were measured over 9 timepoints collected between 0 and 24 hours of incubation by liquid-chromatography-coupled mass spectrometry (LC–MS). The note with it: 2 µM.

Data set [13] can be described thus: The drug is tested on WLS-027 corresponding to human gut metagenome with ENA study accession number: PRJEB37062 and ENA sample accession number: ERS12561744 for biotransformation under anaerobic condition. The drug concentrations were measured over 9 timepoints collected between 0 and 24 hours of incubation by liquid-chromatography-coupled mass spectrometry (LC–MS). Conditions: 2 µM.

For data set [14] the following is noted: human gut metagenome, 24 h, 2 µM. The source holds these as a separate data set.
Data set [15] in a line: The drug is tested on WLS-077 corresponding to human gut metagenome with ENA study accession number: PRJEB37062 and ENA sample accession number: ERS12561750 for biotransformation under anaerobic condition. The drug concentrations were measured over 9 timepoints collected between 0 and 24 hours of incubation by liquid-chromatography-coupled mass spectrometry (LC–MS). Conditions: 2 µM.

A short description of data set [16]: The drug is tested on Z-005 corresponding to metagenome with ENA study accession number: PRJEB37062 and ENA sample accession number: ERS12561805 for biotransformation under anaerobic condition. The drug concentrations were measured over 9 timepoints collected between 0 and 24 hours of incubation by liquid-chromatography-coupled mass spectrometry (LC–MS). Conditions: 2 µM.

For data set [17] the following is noted: human gut metagenome, 24 h, 2 µM. The source holds these as a separate data set.
The conditions of data set [18]: human gut metagenome, 24 h, 2 µM. The source holds these as a separate data set.
The conditions of data set [19]: human gut metagenome, 24 h, 2 µM. This is another data set of the same source.
The conditions of data set [20]: human gut metagenome, 24 h, 2 µM. This is another data set of the same source.

Consider 6 compounds from ChEMBL document CHEMBL5724914, “Linking interpersonal differences in gut microbiota composition and drug biotransformation activity” (2024).
Note: call rule not given here.

In the case of `CC(=O)O[C@]1(C(C)=O)CC[C@H]2[C@@H]3C=C(C)C4=CC(=O)CC[C@]4(C)[C@H]3CC[C@@]21C` [MEGESTROL ACETATE], the “Bacterial Biotransformation” value in data set [1] was “Compound NOT metabolized”; in [2] it was “Compound metabolized”; in [3], “Compound NOT metabolized”; in data set [4], “Compound metabolized”; in data set [5], “Compound metabolized”; in data set [6] it was “Compound metabolized”. Also, the “Bacterial Biotransformation” value in data set [7] is listed as “Compound metabolized”; in [8], “Compound metabolized”; in [9], “Compound metabolized”; in data set [10], “Compound metabolized”; in [11], “Compound metabolized”; in [12] it was “Compound NOT metabolized”. Besides, the “Bacterial Biotransformation” value in data set [13], in data set [14], in [15], in [16], in [17] and in data set [18] was “Compound metabolized” throughout. In addition, the “Bacterial Biotransformation” value in [19] is “Compound NOT metabolized”; in data set [20], “Compound metabolized”.

In the case of `COc1cc(C(=O)NCc2ccc(OCCN(C)C)cc2)cc(OC)c1OC` [TRIMETHOBENZAMIDE], the “Bacterial Biotransformation” value in [1], in data set [2], in [3], in data set [4], in data set [5] and in data set [6] was “Compound NOT metabolized” in each case. The “Bacterial Biotransformation” value in data set [7], in [8], in data set [9], in data set [10], in [11] and in data set [12] was “Compound NOT metabolized” throughout. Moreover, the “Bacterial Biotransformation” value in data set [13], in data set [14], in data set [15], in data set [16], in data set [17] and in [18] was “Compound NOT metabolized” throughout. For the same compound, the “Bacterial Biotransformation” value in [19] and in data set [20] was “Compound NOT metabolized” throughout.

As for `CN[C@H]1CC[C@@H](c2ccc(Cl)c(Cl)c2)c2ccccc21` [SERTRALINE], the “Bacterial Biotransformation” value is on record as “Compound NOT metabolized” in data set [1]; “Compound NOT metabolized” in data set [2]; “Compound NOT metabolized” in data set [3]; “Compound metabolized” in [4]; “Compound NOT metabolized” in data set [5]; “Compound metabolized” in data set [6]. Further, the “Bacterial Biotransformation” value is given as “Compound metabolized” in data set [7]; “Compound NOT metabolized” in [8]; “Compound metabolized” in data set [9]; “Compound NOT metabolized” in data set [10]; “Compound metabolized” in data set [11]; “Compound NOT metabolized” in [12]. The “Bacterial Biotransformation” value in data set [13] is reported as “Compound metabolized”; in data set [14] it was “Compound metabolized”; in data set [15] it was “Compound metabolized”; in data set [16], “Compound NOT metabolized”; in [17] it was “Compound metabolized”; in data set [18], “Compound metabolized”. Moreover, the “Bacterial Biotransformation” value is recorded as “Compound NOT metabolized” in data set [19] and “Compound metabolized” in data set [20].

Consider `CCc1oc2ccccc2c1C(=O)c1cc(Br)c(O)c(Br)c1` [BENZBROMARONE], for which the “Bacterial Biotransformation” value in data set [1] is listed as “Compound NOT metabolized”; in data set [2], “Compound NOT metabolized”; in [3] it was “Compound NOT metabolized”; in data set [4], “Compound NOT metabolized”; in data set [5] it was “Compound NOT metabolized”; in data set [6], “Compound metabolized”. The “Bacterial Biotransformation” value is given as “Compound metabolized” in data set [7]; “Compound metabolized” in [8]; “Compound metabolized” in data set [9]; “Compound metabolized” in [10]; “Compound NOT metabolized” in data set [11]; “Compound NOT metabolized” in data set [12]. The “Bacterial Biotransformation” value in data set [13], in data set [14], in data set [15], in [16], in data set [17] and in data set [18] was “Compound metabolized” throughout. Besides, the “Bacterial Biotransformation” value is reported as “Compound NOT metabolized” in [19] and “Compound metabolized” in data set [20].

With `Cc1cc2c(s1)Nc1ccccc1N=C2N1CCN(C)CC1` [OLANZAPINE], the “Bacterial Biotransformation” value in data set [1] is on record as “Compound NOT metabolized”; in [2], “Compound metabolized”; in data set [3], “Compound NOT metabolized”; in data set [4] it was “Compound NOT metabolized”; in [5] it was “Compound metabolized”; in data set [6], “Compound metabolized”. Also, the “Bacterial Biotransformation” value in data set [7] was “Compound NOT metabolized”; in data set [8], “Compound metabolized”; in [9], “Compound metabolized”; in data set [10], “Compound NOT metabolized”; in data set [11] it was “Compound NOT metabolized”; in data set [12], “Compound NOT metabolized”. In addition, the “Bacterial Biotransformation” value is on record as “Compound NOT metabolized” in [13]; “Compound NOT metabolized” in data set [14]; “Compound metabolized” in data set [15]; “Compound NOT metabolized” in [16]; “Compound NOT metabolized” in data set [17]; “Compound NOT metabolized” in data set [18]. The “Bacterial Biotransformation” value in data set [19] and in data set [20] was “Compound NOT metabolized” each time.

Take `Clc1cccc(Cl)c1N=C1NCCN1` [CLONIDINE]: the “Bacterial Biotransformation” value in [1] is reported as “Compound NOT metabolized”; in data set [2], “Compound metabolized”; in [3], “Compound NOT metabolized”; in data set [4] it was “Compound NOT metabolized”; in data set [5] it was “Compound NOT metabolized”; in [6], “Compound metabolized”. For the same compound, the “Bacterial Biotransformation” value is listed as “Compound metabolized” in data set [7]; “Compound NOT metabolized” in data set [8]; “Compound NOT metabolized” in data set [9]; “Compound NOT metabolized” in [10]; “Compound metabolized” in data set [11]; “Compound NOT metabolized” in data set [12]. Moreover, the “Bacterial Biotransformation” value is recorded as “Compound NOT metabolized” in data set [13]; “Compound NOT metabolized” in data set [14]; “Compound NOT metabolized” in [15]; “Compound NOT metabolized” in [16]; “Compound NOT metabolized” in data set [17]; “Compound metabolized” in data set [18]. The figures for the “Bacterial Biotransformation” value in [19] and in [20] were “Compound metabolized” and “Compound NOT metabolized”, respectively.
